The test system of series [1] is HOS-TE85. Briefly: Cytotoxicity against human MNNG cells assessed as cell growth inhibition at 1 uM measured after 72 hrs by MTT assay relative to control. In kind it is functional. The note with it: read-out: GI. For orientation: Tetrazolium assays rely on reduction of a dye to a coloured formazan, in cell work by metabolically active cells.
Series [2] in a line: Cytotoxicity against HUVEC assessed as cell growth inhibition measured after 72 hrs by MTT assay. In kind it is toxicity, cell-based. The note with it: human, HUVEC cells.
The subject of series [3] is HOS-TE85. Briefly: Cytotoxicity against human MNNG cells assessed as cell growth inhibition at 10 uM measured after 72 hrs by MTT assay relative to control. In kind it is functional. The following applies: read-out: GI.
Series [4] in a line: Selectivity index, ratio of IC50 for cytotoxicity against HUVEC to IC50 for cytotoxicity against human MNNG cells. In kind it is toxicity, cell-based. The note with it: HUVEC and human MNNG cells, read-out: Ratio IC50.
The subject of series [5] is HOS-TE85. In words: Cytotoxicity against human MNNG cells assessed as cell growth inhibition measured after 72 hrs by MTT assay. In kind it is functional, cell-based. The note with it: HOS-TE85, 72 h.

The structures appear in SMILES notation.

For orientation: IC50 means the concentration that inhibits the measured activity by half.

For the compound `N#Cc1nc2c(nc1C#N)-c1cc(F)c(F)cc1/C2=N\NC1CCCCC1`, in the series on HOS-TE85 [1], the inhibition of growth at 1 µM amounted to 31.2%. Moreover, the IC50 at 72 h in series [2] is 17.2 µM. The inhibition of growth at 10 µM in the series on HOS-TE85 [3] was determined as 90.4%. The selectivity ratio in series [4] amounted to 7.73. The IC50 in the series with HOS-TE85 [5] was found to be 2.22 µM.

Values taken from ChEMBL document CHEMBL6109124, “Identification of effective anti-osteosarcoma agents via screening of an in-house NQO1-targeted compound library” (Bioorg Med Chem, 2025).
